Biological target: T1, human Npt2a (Homo sapiens, UniProt Q06495)
T1 construct: expressed in transfected cells
T1 sequence (Q06495 1-639): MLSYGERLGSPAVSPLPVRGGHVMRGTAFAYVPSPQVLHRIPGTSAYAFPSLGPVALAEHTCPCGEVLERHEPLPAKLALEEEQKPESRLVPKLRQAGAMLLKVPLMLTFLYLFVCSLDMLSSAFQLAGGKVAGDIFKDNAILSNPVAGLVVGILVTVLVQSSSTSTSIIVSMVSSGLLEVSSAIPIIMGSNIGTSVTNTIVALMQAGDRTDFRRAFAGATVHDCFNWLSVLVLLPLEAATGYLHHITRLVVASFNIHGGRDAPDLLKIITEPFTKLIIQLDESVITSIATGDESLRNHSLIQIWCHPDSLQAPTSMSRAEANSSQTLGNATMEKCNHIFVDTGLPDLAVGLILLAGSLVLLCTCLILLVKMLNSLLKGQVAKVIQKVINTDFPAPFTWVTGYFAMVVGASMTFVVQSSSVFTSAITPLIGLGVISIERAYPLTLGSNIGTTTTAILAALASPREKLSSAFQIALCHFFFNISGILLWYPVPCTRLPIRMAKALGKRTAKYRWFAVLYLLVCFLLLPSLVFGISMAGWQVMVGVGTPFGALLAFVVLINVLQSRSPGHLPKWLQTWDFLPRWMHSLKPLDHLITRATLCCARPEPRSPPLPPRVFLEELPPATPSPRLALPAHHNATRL
Assay: Npt2a activity cell based assay, membrane potential dye, CHO T-REx hNpt2a cells
Conditions: doxycycline-induced, depolarization by sodium phosphate influx, average or median values if tested more than once
In short: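 Cells were doxycycline-induced CHO T-REx hNpt2a, dye-loaded and pretreated 5 min at RT with 1 nM–50 μM compound in Na-free pH 7.4 buffer. IC50 was fit to the post/pre-trigger fluorescence ratio.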

Row | Compound | IC50
1 | Cc1nn(-c2cc(Nc3c(C)c(-c4ccc(F)cc4)nn3CC3CC3)ncn2)c(C)c1OC(F)F [Example 509, N-[1-(cyclopropylmethyl)-3-(4-fluorophenyl)-4-methyl-1H-pyrazol-5-yl]-6-[4-(difluoromethoxy)-3,5-dimethyl-1H-pyrazol-1-yl]pyrimidin-4-amine] | 0.01 µM
2 | COc1c(C)nn(-c2cc(Nc3c(C)c(-c4ccc(C(F)F)nc4)nn3CC3CC3)ncn2)c1C [Example 510, N-{1-(cyclopropylmethyl)-3-[6-(difluoromethyl)pyridin-3-yl]-4-methyl-1H-pyrazol-5-yl}-6-(4-methoxy-3,5-dimethyl-1H-pyrazol-1-yl)pyrimidin-4-amine] | 0.19 µM
3 | Cc1nn(-c2cc(Nc3c(C)c(-c4ccc(C(F)F)nc4)nn3CC3CC3)ncn2)c(C)c1Cl [Example 511, 6-(4-chloro-3,5-dimethyl-1H-pyrazol-1-yl)-N-{1-(cyclopropylmethyl)-3-[6-(difluoromethyl)pyridin-3-yl]-4-methyl-1H-pyrazol-5-yl}pyrimidin-4-amine] | 0.12 µM
4 | Cc1nn(-c2cc(Nc3c(C)c(-c4ccc(C(F)F)nc4)nn3CC3CC3)ncn2)c(C)c1C#N [Example 512, 1-[6-({1-(cyclopropylmethyl)-3-[6-(difluoromethyl)pyridin-3-yl]-4-methyl-1H-pyrazol-5-yl}amino)pyrimidin-4-yl]-3,5-dimethyl-1H-pyrazole-4-carbonitrile] | 1.4 µM
5 | Cc1nn(-c2cc(Nc3c(C)c(C45C6C7C4C4C5C6C74C#N)nn3CC3CC3)ncn2)c(C)c1Cl (centres unmarked) [Example 513, 4-[5-{[6-(4-chloro-3,5-dimethyl-1H-pyrazol-1-yl)pyrimidin-4-yl]amino}-1-(cyclopropylmethyl)-4-methyl-1H-pyrazol-3-yl]cubane-1-carbonitrile] | 0.007 µM
6 | COc1c(C)nn(-c2cc(Nc3c(C)c(C45C6C7C4C4C5C6C74C#N)nn3CC3CC3)ncn2)c1C (centres unmarked) [Example 514, 4-[1-(cyclopropylmethyl)-5-{[6-(4-methoxy-3,5-dimethyl-1H-pyrazol-1-yl)pyrimidin-4-yl]amino}-4-methyl-1H-pyrazol-3-yl]cubane-1-carbonitrile] | 0.009 µM
7 | Cc1nn(-c2cc(Nc3c(C)c(-c4ccc(F)cc4)nn3CC3CC3)ncn2)c(C)c1C1(C(F)(F)F)OCCO1 [Example 517, N-[1-(cyclopropylmethyl)-3-(4-fluorophenyl)-4-methyl-1H-pyrazol-5-yl]-6-{3,5-dimethyl-4-[2-(trifluoromethyl)-1,3-dioxolan-2-yl]-1H-pyrazol-1-yl}pyrimidin-4-amine] | 0.029 µM
8 | COC(=O)Oc1c(C)nn(-c2cc(Nc3c(C)c(-c4ccc(F)cc4)nn3CC3CC3)ncn2)c1C [Example 518, 1-(6-{[1-(cyclopropylmethyl)-3-(4-fluorophenyl)-4-methyl-1H-pyrazol-5-yl]amino}pyrimidin-4-yl)-3,5-dimethyl-1H-pyrazol-4-yl methyl carbonate] | 0.014 µM
9 | CNC(=O)Oc1c(C)nn(-c2cc(Nc3c(C)c(-c4ccc(F)cc4)nn3CC3CC3)ncn2)c1C [Example 519, 1-(6-{[1-(cyclopropylmethyl)-3-(4-fluorophenyl)-4-methyl-1H-pyrazol-5-yl]amino}pyrimidin-4-yl)-3,5-dimethyl-1H-pyrazol-4-yl methylcarbamate] | 0.23 µM
10 | Cc1nn(-c2cc(Nc3c(C)c(-c4ccc(F)cc4)nn3CC3CC3)ncn2)c(C)c1OC(=O)N(C)C [Example 520, 1-(6-{[1-(cyclopropylmethyl)-3-(4-fluorophenyl)-4-methyl-1H-pyrazol-5-yl]amino}pyrimidin-4-yl)-3,5-dimethyl-1H-pyrazol-4-yl dimethylcarbamate] | 1.6 µM
11 | CNc1ccc(-c2nn(CCOC)c(Nc3cc(-n4nc(C)c(Cl)c4C)ncn3)c2C)cc1 [Example 521, 6-(4-chloro-3,5-dimethyl-1H-pyrazol-1-yl)-N-{1-(2-methoxyethyl)-4-methyl-3-[4-(methylamino)phenyl]-1H-pyrazol-5-yl}pyrimidin-4-amine] | 0.008 µM
12 | CCCN1Cc2cnn(-c3cc(Nc4c(C)c(-c5ccc(F)cc5)nn4CC4CC4)ncn3)c2C1 [Example 522, N-[1-(cyclopropylmethyl)-3-(4-fluorophenyl)-4-methyl-1H-pyrazol-5-yl]-6-(5-propyl-5,6-dihydropyrrolo[3,4-c]pyrazol-1(4H)-yl)pyrimidin-4-amine] | 0.91 µM
13 | CCCN1Cc2cn(-c3cc(Nc4c(C)c(-c5ccc(F)cc5)nn4CC4CC4)ncn3)nc2C1 [Example 523, N-[1-(cyclopropylmethyl)-3-(4-fluorophenyl)-4-methyl-1H-pyrazol-5-yl]-6-(5-propyl-5,6-dihydropyrrolo[3,4-c]pyrazol-2(4H)-yl)pyrimidin-4-amine] | 0.69 µM
14 | COCCn1nc(-c2ccc(F)cc2)c(C)c1Nc1cc(-n2nc(C)c(C(F)(F)F)c2C)ncn1 [Example 524, 6-[3,5-dimethyl-4-(trifluoromethyl)-1H-pyrazol-1-yl]-N-[3-(4-fluorophenyl)-1-(2-methoxyethyl)-4-methyl-1H-pyrazol-5-yl]pyrimidin-4-amine] | 0.008 µM
15 | COCCn1nc(-c2ccc(F)cc2)c(C)c1Nc1cc(-n2nc(C)cc2C)ncn1 [Example 525, 6-(3,5-dimethyl-1H-pyrazol-1-yl)-N-[3-(4-fluorophenyl)-1-(2-methoxyethyl)-4-methyl-1H-pyrazol-5-yl]pyrimidin-4-amine] | 0.004 µM
16 | COCCn1nc(-c2ccc(F)cc2)c(C)c1Nc1cc(-n2nc(C)c(OC)c2C)ncn1 [Example 526, N-[3-(4-fluorophenyl)-1-(2-methoxyethyl)-4-methyl-1H-pyrazol-5-yl]-6-(4-methoxy-3,5-dimethyl-1H-pyrazol-1-yl)pyrimidin-4-amine] | 0.017 µM
17 | COCCn1nc(-c2ccc(F)cc2)c(C)c1Nc1cc(-n2nc(C)cc2C(F)F)ncn1 [Example 527, 6-[5-(difluoromethyl)-3-methyl-1H-pyrazol-1-yl]-N-[3-(4-fluorophenyl)-1-(2-methoxyethyl)-4-methyl-1H-pyrazol-5-yl]pyrimidin-4-amine] | 0.009 µM
18 | CCOC(=O)c1c(C)nn(-c2cc(Nc3c(C)c(-c4ccc(F)cc4)nn3CCOC)ncn2)c1C [Example 528, ethyl 1-(6-{[3-(4-fluorophenyl)-1-(2-methoxyethyl)-4-methyl-1H-pyrazol-5-yl]amino}pyrimidin-4-yl)-3,5-dimethyl-1H-pyrazole-4-carboxylate] | 0.004 µM
19 | Cc1ccc(-c2nn(CC3CC3)c(Nc3cc(-n4nc(C)cc4C)ncn3)c2C)cn1 [Example 529, N-[1-(cyclopropylmethyl)-4-methyl-3-(6-methylpyridin-3-yl)-1H-pyrazol-5-yl]-6-(3,5-dimethyl-1H-pyrazol-1-yl)pyrimidin-4-amine] | 2.7 µM
20 | Cc1ccc(-c2nn(C)c(Nc3cc(-n4nc(C)c(C(F)(F)F)c4C)ncn3)c2C)cn1 [Example 530, N-[1,4-dimethyl-3-(6-methylpyridin-3-yl)-1H-pyrazol-5-yl]-6-[3,5-dimethyl-4-(trifluoromethyl)-1H-pyrazol-1-yl]pyrimidin-4-amine] | 0.033 µM
21 | COc1c(Nc2cc(-n3nc(C)c(CC(C)(C)O)c3C)ncn2)nn(C)c1-c1ccc(C#N)cc1 [Example 531, 4-[3-({6-[4-(2-hydroxy-2-methylpropyl)-3,5-dimethyl-1H-pyrazol-1-yl]pyrimidin-4-yl}amino)-4-methoxy-1-methyl-1H-pyrazol-5-yl]benzonitrile] | 1.5 µM
22 | Cc1cc(C(F)F)n(-c2cc(Nc3c(C)c(-c4ccc(C(F)(F)F)nc4)nn3CC3CC3)ncn2)n1 [Example 532, N-{1-(cyclopropylmethyl)-4-methyl-3-[6-(trifluoromethyl)pyridin-3-yl]-1H-pyrazol-5-yl}-6-[5-(difluoromethyl)-3-methyl-1H-pyrazol-1-yl]pyrimidin-4-amine] | 2.8 µM
23 | Cc1cc(C)n(-c2cc(Nc3c(C)c(-c4ccc(C(F)(F)F)nc4)nn3CC3CC3)ncn2)n1 [Example 533, N-{1-(cyclopropylmethyl)-4-methyl-3-[6-(trifluoromethyl)pyridin-3-yl]-1H-pyrazol-5-yl}-6-(3,5-dimethyl-1H-pyrazol-1-yl)pyrimidin-4-amine] | 2 µM
24 | Cc1nn(-c2cc(Nc3c(C)c(-c4ccc(C(F)(F)F)nc4)nn3CC3CC3)ncn2)c(C)c1Cl [Example 534, 6-(4-chloro-3,5-dimethyl-1H-pyrazol-1-yl)-N-{1-(cyclopropylmethyl)-4-methyl-3-[6-(trifluoromethyl)pyridin-3-yl]-1H-pyrazol-5-yl}pyrimidin-4-amine] | 1.5 µM
25 | COc1c(C)nn(-c2cc(Nc3c(C)c(-c4ccc(C(F)(F)F)nc4)nn3CC3CC3)ncn2)c1C [Example 535, N-{1-(cyclopropylmethyl)-4-methyl-3-[6-(trifluoromethyl)pyridin-3-yl]-1H-pyrazol-5-yl}-6-(4-methoxy-3,5-dimethyl-1H-pyrazol-1-yl)pyrimidin-4-amine] | 0.026 µM
26 | COCCn1nc(-c2ccc(C(F)F)cc2)c(C)c1Nc1cc(-n2nc(C)cc2C)ncn1 [Example 536, N-{3-[4-(difluoromethyl)phenyl]-1-(2-methoxyethyl)-4-methyl-1H-pyrazol-5-yl}-6-(3,5-dimethyl-1H-pyrazol-1-yl)pyrimidin-4-amine] | 0.017 µM
